Reference: patent US11479539B2, “Small molecule modulators of the BTB domain of Keap1” (MedImmune Limited, priority 2017, dated 2022)

These molecules were tested against Keap1 (Homo sapiens (Human), UniProt Q14145) (assay: HEK293 ARE luciferase assay). Conditions: HEK-293 ARE firefly luciferase transiently transfected cells; 18 h incubation; mean of 1 to 20 individual measurements.
Type: cell-based
Procedure, shortened: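 Transiently transfected HEK-293 ARE firefly luciferase cells (10,000/well, DMEM with 10% FCS) exposed to compound, 10-point curve from 100 μM top, 0.3% DMSO, 18 h at 37 °C. SteadyGlo luminescence; activity normalised to 30 μM tBHQ (stimulator) and DMSO (neutral), activity threshold 50; means of 1-20 measurements.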

Keap1, sequence (Q14145 whole entry): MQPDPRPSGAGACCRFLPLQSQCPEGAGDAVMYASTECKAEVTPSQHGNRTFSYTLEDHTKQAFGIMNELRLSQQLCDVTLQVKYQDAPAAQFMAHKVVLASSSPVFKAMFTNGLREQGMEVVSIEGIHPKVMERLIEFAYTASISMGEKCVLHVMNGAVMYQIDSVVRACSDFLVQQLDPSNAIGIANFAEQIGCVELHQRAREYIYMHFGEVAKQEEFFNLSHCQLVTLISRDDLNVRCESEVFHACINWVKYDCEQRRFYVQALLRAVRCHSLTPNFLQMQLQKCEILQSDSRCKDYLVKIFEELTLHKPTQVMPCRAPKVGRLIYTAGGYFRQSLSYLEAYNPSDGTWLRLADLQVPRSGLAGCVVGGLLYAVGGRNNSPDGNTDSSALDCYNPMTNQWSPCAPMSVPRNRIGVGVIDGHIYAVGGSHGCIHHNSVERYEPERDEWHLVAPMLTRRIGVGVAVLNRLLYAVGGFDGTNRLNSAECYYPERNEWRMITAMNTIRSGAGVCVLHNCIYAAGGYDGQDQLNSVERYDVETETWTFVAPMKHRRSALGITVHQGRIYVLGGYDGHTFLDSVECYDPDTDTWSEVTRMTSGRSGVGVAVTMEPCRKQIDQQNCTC

Point of comparison: `COC1(c2ncc(F)cc2-c2ccnnc2)C=C(C#N)C(=O)C(C)(C)C1` (single isomer, unassigned) [Compound 220, 3-[5-fluoro-3-(pyridazin-4-yl)pyridin-2-yl]-3-methoxy-5,5-dimethyl-6-oxocyclohex-1-ene-1-carbonitrile], EC50 10 nM. Against it:
- CO[C@]1(c2ncccc2C(F)F)C=C(C#N)C(=O)C2(CC2)C1 [Compound 55, (S)-7-[3-(difluoromethyl)pyridin-2-yl]-7-methoxy-4-oxospiro[2.5]oct-5-ene-5-carbonitrile] — within 1.5-fold, 14 nM
- CCCc1cccnc1C1(OC)C=C(C#N)C(=O)C(C)(C)C1 (centres unmarked) [Compound 169, 3-methoxy-5,5-dimethyl-6-oxo-3-(3-propylpyridin-2-yl)cyclohex-1-ene-1-carbonitrile] — 17-fold higher, 173 nM
- COC1(c2ncccc2Br)CC(C)(C)C(=O)C(C#N)=C1C (centres unmarked) [Compound 108, 3-(3-bromo-2-pyridyl)-3-methoxy-2,5,5-trimethyl-6-oxo-cyclohexene-1-carbonitrile] — 190-fold higher, 1900 nM
- COC1(c2nc(C(F)(F)F)cs2)C=C(C#N)C(=O)C(C)(C)C1 (centres unmarked) [Compound 141, 3-methoxy-5,5-dimethyl-6-oxo-3-[4-(trifluoromethyl)-1,3-thiazol-2-yl]cyclohex-1-ene-1-carbonitrile] — 34-fold higher, 335 nM
- COC1(c2cccc(-c3ccnn3C)n2)C=C(C#N)C(=O)C2(CC2)C1 (centres unmarked) [Compound 129, 7-methoxy-7-[6-(1-methyl-1H-pyrazol-5-yl)pyridin-2-yl]-4-oxospiro[2.5]oct-5-ene-5-carbonitrile] — 14-fold higher, 136 nM
- COC1(c2ncc(F)cc2C)C=C(C#N)C(=O)C(C)(C)C1 (single isomer, unassigned) [Compound 31, 3-(5-fluoro-3-methylpyridin-2-yl)-3-methoxy-5,5-dimethyl-6-oxocyclohex-1-enecarbonitrile] — 1.9-fold higher, 19 nM
- COC1(c2ccc(-c3cnn(C)c3)cn2)C=C(C#N)C(=O)C(C)(C)C1 (centres unmarked) [Compound 115, 3-methoxy-5,5-dimethyl-3-[5-(1-methyl-1H-pyrazol-4-yl)pyridin-2-yl]-6-oxocyclohex-1-ene-1-carbonitrile] — 11-fold higher, 106 nM
- COC1(c2ncc(F)cc2C(F)(F)F)C=C(C#N)C(=O)C(C)(C)C1 (centres unmarked) [Compound 151, 3-[5-fluoro-3-(trifluoromethyl)pyridin-2-yl]-3-methoxy-5,5-dimethyl-6-oxocyclohex-1-ene-1-carbonitrile] — 3.4-fold higher, 34 nM
- COC1(c2ncc(F)cc2-c2ccn3nc(C)nc3c2)C=C(C#N)C(=O)C(C)(C)C1 (single isomer, unassigned) [Compound 229, 3-[5-fluoro-3-(2-methyl[1,2,4]triazolo[1,5-a]pyridin-7-yl)pyridin-2-yl]-3-methoxy-5,5-dimethyl-6-oxocyclohex-1-ene-1-carbonitrile] — the same, 10 nM
- COc1cncc(-c2cc(F)cnc2C2(OC)C=C(C#N)C(=O)C(C)(C)C2)c1 (single isomer, unassigned) [Compound 237, 3-(5-fluoro-5′-methoxy[3,3′-bipyridin]-2-yl)-3-methoxy-5,5-dimethyl-6-oxocyclohex-1-ene-1-carbonitrile] — 2-fold higher, 20 nM
- COC1(c2ncc(F)cc2-c2cnc(C)c(F)c2)C=C(C#N)C(=O)C(C)(C)C1 (single isomer, unassigned) [Compound 230, 3-(5,5′-difluoro-6′-methyl[3,3′-bipyridin]-2-yl)-3-methoxy-5,5-dimethyl-6-oxocyclohex-1-ene-1-carbonitrile] — 1.6-fold higher, 16 nM
- COC1(c2sc(C)nc2C)C=C(C#N)C(=O)C(C)(C)C1 (centres unmarked) [Compound 46, 3-(2,4-dimethylthiazol-5-yl)-3-methoxy-5,5-dimethyl-6-oxocyclohex-1-enecarbonitrile] — 30-fold higher, 304 nM
- CCn1cc(-c2cc(F)cnc2C2(OC)C=C(C#N)C(=O)C(C)(C)C2)cn1 (single isomer, unassigned) [Compound 86, 3-[3-(1-ethylpyrazol-4-yl)-5-fluoro-2-pyridyl]-3-methoxy-5,5-dimethyl-6-oxo-cyclohexene-1-carbonitrile] — within 1.5-fold, 9 nM
- COc1ncc(C)cc1-c1cc(F)cnc1C1(OC)C=C(C#N)C(=O)C(C)(C)C1 (single isomer, unassigned) [Compound 234, 3-(5-fluoro-2′-methoxy-5′-methyl[3,3′-bipyridin]-2-yl)-3-methoxy-5,5-dimethyl-6-oxocyclohex-1-ene-1-carbonitrile] — within 1.5-fold, 9 nM
- COC1(c2nc(C)c(-c3ccccn3)s2)C=C(C#N)C(=O)C2(CC2)C1 (centres unmarked) [Compound 194, 7-methoxy-7-[4-methyl-5-(pyridin-2-yl)-1,3-thiazol-2-yl]-4-oxospiro[2.5]oct-5-ene-5-carbonitrile] — 20-fold higher, 203 nM
- COC1(c2ncc(F)cc2-c2ccnc(C(F)(F)F)c2)C=C(C#N)C(=O)C(C)(C)C1 (single isomer, unassigned) [Compound 236, 3-[5-fluoro-2′-(trifluoromethyl)[3,4′-bipyridin]-2-yl]-3-methoxy-5,5-dimethyl-6-oxocyclohex-1-ene-1-carbonitrile] — 1.7-fold higher, 17 nM
- COC1(c2ncc(F)cc2-c2cncc(C#N)c2)C=C(C#N)C(=O)C(C)(C)C1 (centres unmarked) [Compound 184, 2′-(3-cyano-1-methoxy-5,5-dimethyl-4-oxocyclohex-2-en-1-yl)-5′-fluoro[3,3′-bypyridine]-5-carbonitrile] — 12-fold higher, 121 nM
- COC1(c2ncc(F)cc2OC(F)F)C=C(C#N)C(=O)C2(CC2)C1 (single isomer, unassigned) [Compound 62, 7-[3-(difluorometh-oxy)-5-fluoropyridin-2-yl]-7-methoxy-4-oxospiro[2.5]oct-5-ene-5-carbonitrile] — 1.5-fold higher, 15 nM
- COC1(c2nc(C)c(-c3ccccn3)s2)C=C(C#N)C(=O)C(C)(C)C1 (single isomer, unassigned) [Compound 99, 3-methoxy-5,5-dimethyl-3-[4-methyl-5-(pyridin-2-yl)-1,3-thiazol-2-yl]-6-oxocyclohex-1-ene-1-carbonitrile] — 6.6-fold higher, 66 nM
- COC1(c2ccc(Cl)cn2)C=C(C#N)C(=O)C2(CC2)C1 (centres unmarked) [Compound 65, 7-(5-chloropyridin-2-yl)-7-methoxy-4-oxospiro[2.5]oct-5-ene-5-carbonitrile] — 25-fold higher, 247 nM
- COC1(c2ncc(F)cc2C(F)(F)F)C=C(C#N)C(=O)C(C)(C)C1 (single isomer, unassigned) [Compound 26, 3-(5-fluoro-3-(trifluoromethyl)py-ridin-2-yl)-3-methoxy-5,5-dimethyl-6-oxocyclohex-1-enecarbonitrile] — 2.4-fold higher, 24 nM
- COC1(c2ncc(F)cc2-c2cncc(C(=O)N(C)C)c2)C=C(C#N)C(=O)C(C)(C)C1 (single isomer, unassigned) [Compound 227, 2′-(3-cyano-1-methoxy-5,5-dimethyl-4-oxocyclohex-2-en-1-yl)-5′-fluoro-N,N-dimethyl[3,3′-bipyridine]-5-carboxamide] — 1.5-fold higher, 15 nM
- COC1(c2ccc(F)cn2)C=C(C#N)C(=O)C2(CCCC2)C1 (centres unmarked) [Compound 240, 9-(5-fluropyridin-2-yl)-9-methoxy-6-oxospiro[4.5]dec-7-ene-7-carbonitrile] — 84-fold higher, 838 nM
- COC1(c2ccccn2)C=C(C#N)C(=O)C2(CC2)C1 (centres unmarked) [Compound 135, 7-methoxy-4-oxo-7-(pyridin-2-yl)spiro[2.5]oct-5-ene-5-carbonitrile] — 24-fold higher, 244 nM
- COC1(c2ncc(F)cc2-c2cnc(C)s2)C=C(C#N)C(=O)C(C)(C)C1 (single isomer, unassigned) [Compound 73, 3-[5-fluoro-3-(2-methyl-1,3-thiazol-5-yl)pyridin-2-yl]-3-methoxy-5,5-dimethyl-6-oxocyclohex-1-ene-1-carbonitrile] — within 1.5-fold, 7 nM
- COC1(c2ncccc2C(F)(F)F)C=C(C#N)C(=O)C2(CC2)C1 (single isomer, unassigned) [Compound 57, 7-methoxy-4-oxo-7-[3-(trifluoromethyl)pyridin-2-yl]spiro[2.5]oct-5-ene-5-carbonitrile] — 4.7-fold higher, 47 nM
- COC1(c2cccc(-n3ccnc3C)n2)C=C(C#N)C(=O)C(C)(C)C1 (centres unmarked) [Compound 12, 3-methoxy-5,5-dimethyl-3-[6-(2-methylimidazol-1-yl)-2-pyridyl]-6-oxo-cyclohexene-1-carbonitrile] — 12-fold higher, 119 nM
- COC1(c2ncc(F)cc2C)C=C(C#N)C(=O)C2(CCCC2)C1 (centres unmarked) [Compound 149, 9-(5-fluoro-3-methylpyridin-2-yl)-9-methoxy-6-oxospiro[4.5]dec-7-ene-7-carbonitrile] — 20-fold higher, 201 nM
- COC1(c2nc(C)cs2)C=C(C#N)C(=O)C2(CC2)C1 (centres unmarked) [Compound 140, 7-methoxy-7-(4-methyl-1,3-thiazol-2-yl)-4-oxospiro[2.5]oct-5-ene-5-carbonitrile] — 14-fold higher, 140 nM
- COC1(c2scnc2C)C=C(C#N)C(=O)C(C)(C)C1 (centres unmarked) [Compound 150, 3-methoxy-5,5-dimethyl-3-(4-methyl-1,3-thiazol-5-yl)-6-oxocyclohex-1-ene-1-carbonitrile] — 15-fold higher, 147 nM
- COC1(c2cccnc2Br)C=C(C#N)C(=O)C(C)(C)C1 (centres unmarked) [Compound 21, 3-(2-bromo-3-pyridyl)-3-methoxy-5,5-dimethyl-6-oxo-cyclohexene-1-carbonitrile] — 45-fold higher, 452 nM
- COC1(c2nc(C)c(Br)s2)C=C(C#N)C(=O)C(C)(C)C1 (centres unmarked) [Compound 154, 3-(5-bromo-4-methyl-1,3-thiazol-2-yl)-3-methoxy-5,5-dimethyl-6-oxocyclohex-1-ene-1-carbonitrile] — 5.3-fold higher, 53 nM
- COC1(c2cccc(C3CC3)n2)C=C(C#N)C(=O)C(C)(C)C1 (centres unmarked) [Compound 109, 3-(6-cyclopropylpyridin-2-yl)-3-methoxy-5,5-dimethyl-6-oxocyclohex-1-ene-1-carbonitrile] — 18-fold higher, 185 nM
- CO[C@]1(c2ncc(F)cc2-c2ccc(=O)n(C)c2)C=C(C#N)C(=O)C(C)(C)C1 [Compound 74, (S)-3-[5-fluoro-3-(1-methyl-6-oxo-3-pyridyl)-2-pyridyl]-3-methoxy-5,5-dimethyl-6-oxo-cyclohexene-1-carbonitrile] — 1.5-fold higher, 15 nM
